The text below walks through data of patent US20100184094A1, “USE OF MDCK CELLS IN THE EVALUATION OF CHOLESTEROL MODULATORS” (priority 2007, published 2010).

Like-named read-outs stand apart in the source and are kept apart here. Where only a bound is given, the exact number is not on record here.

For the test, the target named is T1, human NPC1L1 (Homo sapiens, UniProt Q9UHC9).
T1 construct: expressed in transfected cells
T1 sequence (Q9UHC9 22-1359): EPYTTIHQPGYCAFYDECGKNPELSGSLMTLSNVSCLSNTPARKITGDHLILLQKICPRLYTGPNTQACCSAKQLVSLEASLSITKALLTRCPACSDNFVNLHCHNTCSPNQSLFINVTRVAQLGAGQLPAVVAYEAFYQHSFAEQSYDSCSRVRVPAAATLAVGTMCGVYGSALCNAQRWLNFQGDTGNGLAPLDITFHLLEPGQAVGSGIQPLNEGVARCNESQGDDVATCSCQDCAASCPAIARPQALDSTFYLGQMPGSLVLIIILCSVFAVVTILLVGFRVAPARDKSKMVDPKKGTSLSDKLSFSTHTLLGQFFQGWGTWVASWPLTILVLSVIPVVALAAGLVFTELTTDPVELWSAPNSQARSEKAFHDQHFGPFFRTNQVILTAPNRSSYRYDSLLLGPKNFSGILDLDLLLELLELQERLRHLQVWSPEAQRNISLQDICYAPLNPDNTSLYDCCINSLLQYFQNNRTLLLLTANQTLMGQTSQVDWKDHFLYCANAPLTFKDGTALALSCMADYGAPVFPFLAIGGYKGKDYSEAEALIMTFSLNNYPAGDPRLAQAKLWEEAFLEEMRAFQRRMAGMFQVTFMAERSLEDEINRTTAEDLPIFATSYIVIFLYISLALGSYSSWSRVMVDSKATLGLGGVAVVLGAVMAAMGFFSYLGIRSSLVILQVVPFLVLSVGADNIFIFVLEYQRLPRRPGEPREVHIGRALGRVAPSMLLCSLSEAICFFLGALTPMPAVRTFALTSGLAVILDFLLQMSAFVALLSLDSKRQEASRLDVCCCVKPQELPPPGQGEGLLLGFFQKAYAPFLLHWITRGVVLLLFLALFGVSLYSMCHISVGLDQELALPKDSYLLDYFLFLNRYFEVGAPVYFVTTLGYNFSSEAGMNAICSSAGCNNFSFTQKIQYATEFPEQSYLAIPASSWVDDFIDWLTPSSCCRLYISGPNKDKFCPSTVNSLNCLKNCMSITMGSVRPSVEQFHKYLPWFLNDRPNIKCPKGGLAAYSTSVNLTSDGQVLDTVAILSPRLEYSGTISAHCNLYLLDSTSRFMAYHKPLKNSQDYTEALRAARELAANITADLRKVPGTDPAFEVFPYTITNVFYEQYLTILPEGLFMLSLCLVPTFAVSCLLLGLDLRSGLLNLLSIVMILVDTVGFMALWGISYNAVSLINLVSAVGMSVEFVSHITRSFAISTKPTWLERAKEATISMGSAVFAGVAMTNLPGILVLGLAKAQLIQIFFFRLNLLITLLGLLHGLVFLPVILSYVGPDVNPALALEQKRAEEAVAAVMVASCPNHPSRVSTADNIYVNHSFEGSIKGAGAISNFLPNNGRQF
The test can be described thus: [3H]cholesterol flux into hNPC1L1/MDCKII-Flp cells. In kind it is cell-based. The following applies: for IC50: hNPC1L1/MDCKII-Flp. As for the experimental part: Flux assays were performed essentially as described by Yu et al., 2006 J Biol. Chem. 281:6616-6624. Briefly, cell growth medium was completely aspirated and replaced with 200 μl of 5% LPDS containing the appropriate concentration of compound and incubated at 37° C./3 h in a 5% CO2 incubator. Media was subsequently aspirated from cells and cells were incubated in 200 μl of 0-5.5% βmCD dissolved and filtered through a […] filter at 37° C./45 minutes in a 5% CO2 incubator. Media was dumped from cells that were then washed twice with 125 μl of 5% LPDS before media was aspirated and [3H]cholesterol complexed to BSA in 5% LPDS was added; see Yu et al., 2006 J. Biol. Chem. 281:6616-6624. After 45 minute incubation, cells were washed twice with DMEM, thoroughly aspirated and then 1% SDS was added prior to extraction for scintillation counting.
To validate MDCKII cells as an appropriate surrogate system for monitoring NPC1L1-dependent processes, we evaluated their ability to perform EZE-sensitive cholesterol flux using a similar protocol to that recently reported. This assay makes use of the ability of βmCD to deplete membrane-bound cholesterol. Subsequent exposure of cells to [^3H] cholesterol provides a time-dependent flux of this substrate into the cells. […] In an attempt to improve the assay window, a stable MDCKII-Flp cell line over-expressing human NPC1L1, hNPC1L1/MDCKII-Flp, was generated.
To further characterize the [^3H] cholesterol influx process into MDCK cells, the potency of EZE-like compound PS for inhibiting [^3H] cholesterol uptake was determined.

Where [1] appears, read: FIG. 7D, read-out: IC50 block of [3H]cholesterol flux.

For `O=C1[C@H](CC[C@H](O)c2ccc(F)cc2)[C@@H](c2ccc(O)cc2)N1c1ccc(F)cc1` [EZE, Ezetimibe], the IC50 under setting [1] is over 1000 nM.
As to `O=C(O)[C@H]1O[C@@H](Oc2ccc([C@@H]3[C@@H](CC[C@H](O)c4ccc(F)cc4)C(=O)N3c3ccc(F)cc3)cc2)[C@H](O)[C@@H](O)[C@@H]1O` [EZE-gluc, ezetimibe glucuronide], the IC50 under setting [1] worked out at 300 nM.
In the case of `COC(=O)[C@H]1O[C@@H](Oc2ccc([C@@H]3[C@@H](CC[C@H](O)c4ccc(F)cc4)C(=O)N3c3ccc(C#CCNS(C)(=O)=O)cc3)cc2)[C@H](O)[C@@H](O)[C@@H]1O` [PS, 4-[(2S,3R)-3-[(3S)-3-(4-fluorophenyl)-3-hydroxypropyl]-1-(4-{3-[(methylsulfonyl)amino]prop-1-yn-1-yl}phenyl)-4-oxoazetidin-2-yl]phenyl methyl-β-D-glucopyranosiduronate], the “blockade of [3H]cholesterol influx” value (10 μM PS, 5.5% βmCD treatment) is reported as “almost completely blocked”. Also, the IC50 by setting is: (FIG. 7C, read-out: IC50 inhibition of [3H]cholesterol uptake) 10.3 ± 1.5 nM; under setting [1], 7 nM.

As a reminder, the IC50 is the concentration that inhibits the measured activity by half.
